How the values were obtained:
[1] = test system: BLM-induced pulmonary fibrosis; assay: BLM-induced established pulmonary fibrosis in mice, treatment d14-d21; format: in vivo; details: for BLM-induced pulmonary fibrosis (overall): mice, 1.0 U/kg BLM IT, peptide 10 mg/kg/d IP daily for 7 days starting d14; for lung compliance / lung elastance: flexiVent; for whole lung total hydroxyproline: lung homogenates
Method: FIGS. 9A-9O. M9 peptide and protein mitigated BLM-induced pulmonary fibrosis. Mice exposed to saline or 1.0 U/kg BLM by intratracheal instillation were treated with or without M9 peptide HGHVDPVKTPKI (SEQ ID NO: 4) (10 mg/kg/d) and M9 protein (SEQ ID NO: 1) 7.5 mg/kg/d) via IP injection daily for 7 days starting d14 after BLM injury. FIG. 9A: Representative micro-CT images at d21 after BLM exposure. FIG. 9B: Lung volumes were measured by quantitative-CT renditions. Lung compliance (FIG. 9C) and elastance (FIG. 9D) were measured using a flexiVent system. Lung weights (FIG. 9E) and body weights (FIG. 9F) are presented as bar graphs. Lung homogenates were tested for hydroxyproline (FIG. 9G), soluble collagen (FIG. 9H), pro-fibrogenic marker proteins (FIG. 9I) and mRNAs (FIG. 9J). Bars indicate mean±SD. Statistical significance (*P<0.05, **P<0.01, ***P<0.001 and ****P<0.0001) was assessed by one-way ANOVA with Turkey's multiple comparison. fLfs isolated from IPF lungs treated with PBS or recombinant full length M9 (rM9^FL) protein (2 μg/ml) for 48 h in vitro were tested for pro-fibrogenic proteins (FIG. 9L). fLfs (from IPF lungs) treated with PBS or extracellular domain of rM9^FL protein (rM9^ECD) as in FIG. 9L were tested for pro-fibrogenic proteins (FIG. 9N). The survival the mice treated with rM9^FL is shown FIG. 9M.
FIGS. 10A-10K. UNC5A (“U5”) peptide/protein mitigated BLM-induced pulmonary fibrosis. Mice exposed to saline or 1.0 U/kg BLM by intratracheal instillation were treated with or without U5 peptide (50 residues, SEQ ID NO: 7) (10 mg/kg/d) and full length U5 protein (SEQ ID NO: 5) (7.5 mg/kg/d) via IP injection daily for 7 days starting d14 after BLM injury. FIG. 10A: Representative micro-CT images at d21 after BLM exposure. FIG. 10B: Lung volumes were measured by quantitative-CT renditions. Lung compliance (FIG. 10C) and elastance (FIG. 10D) were measured using a flexiVent system. Lung weights (FIG. 10E) and body weights (FIG. 10F) are presented as bar graphs. Lung homogenates were tested for hydroxyproline (FIG. 10G), soluble collagen (FIG. 10H), pro-fibrogenic marker proteins (FIG. 10I) and mRNAs (FIG. 10J). Bars indicate mean±SD. Statistical significance (*P<0.05, **P<0.01, ***P<0.001 and ****P<0.0001) was assessed by one-way ANOVA with Turkey's multiple comparison.
FIGS. 11A-11K. ALG5 (“A5”) protein mitigated BLM-induced pulmonary fibrosis. Mice exposed to saline or 1.0 U/kg BLM by intratracheal instillation were treated with or without A5 protein (SEQ ID NO: 9) (7.5 mg/kg/d) via IP injection daily for 7 days starting d14 after BLM injury. FIG. 11A: Representative micro-CT images at d21 after BLM exposure. FIG. 11B: Lung volumes were measured by quantitative-CT renditions. Lung compliance (FIG. 11C) and elastance (FIG. 11D) were measured using a flexiVent system. Lung weights (FIG. 11E) and body weights (FIG. 11F) are presented as bar graphs. Lung homogenates were tested for hydroxyproline (FIG. 11G), soluble collagen (FIG. 11H), pro-fibrogenic marker proteins (FIG. 11I) and mRNAs (FIG. 11J). Bars indicate mean±SD. *P<0.05, **P<0.01, ***P<0.001 and ****P<0.0001 were obtained by one-way ANOVA with Turkey's multiple comparison.
FIGS. 12A-12E. WT mice with BLM-PF were treated with or without rM9^ECD (1.5 mg/kg) via intratracheal (IT) instillation daily for 7 d starting d 14 after BLM. Survival (FIG. 12A), body weights (FIG. 12B), lung volumes (FIG. 12C) and lung weights (FIG. 12D) were measured on d 21 post-BLM. Lung homogenates were tested for soluble collagen (FIG. 12E).
FIGS. 13A-13B. FIG. 13A: fLfs (IPF) treated with PBS or M9^mAb (2 μg/ml) or control IgG, tested for pro-fibrogenic proteins (i) and mRNAs (ii). FIG. 13B: WT mice with BLM-PF were left untreated, or intraperitoneal (IP) injected with control IgG or M9^mAb (2.5 mg/kg) daily for 7 d starting 14 d after IT BLM. Body weights (i) and total lung hydroxyproline (ii), and soluble collagen (iii) were measured. […]

[2] = test system: fLfs; details: prior work of the inventor's group; cited from earlier work
[3] = test system: pulmonary fibrosis after lung injury; details: cited from earlier work; for subsequent pulmonary fibrosis: after BLM, prior work; for PF in mice after single (1×) or multi-hit (8×) BLM-, Ad-TGF-β1-, silica- and thoracic radiation-induced lung injury: prior work of the inventor's group
[4] = test system: AECs / lung epithelial cells (LECs); details: cited from earlier work; for BLM-induced apoptosis of lung epithelial cells (LECs): in vitro and in vivo, prior work; for AEC apoptosis: prior work of the inventor's group
[5] = peptide 10 mg/kg/d IP, 7 days starting d14 after BLM
[6] = peptide 10 mg/kg/d IP, 7 days starting d14 after BLM, d21

Substance	BLM-induced fibrogenic marker proteins (Col1, FN, TN-C, α-SMA) in whole lung homogenates [1, 5]	body weight [1, 5]	collagen and other extracellular matrix deposits (Trichrome staining of lung sections) [1, 5]	fibrogenic marker transcripts in whole lung homogenates [1, 5]	lung weight [1, 5]	lung compliance [1, 6]	lung elastance [1, 6]	whole lung total hydroxyproline [1, 5]	fLf expansion [2]	subsequent pulmonary fibrosis [3]	PF in mice after single (1×) or multi-hit (8×) BLM-, Ad-TGF-β1-, silica- and thoracic radiation-induced lung injury [3]	BLM-induced apoptosis of lung epithelial cells (LECs) [4]	AEC apoptosis [4]	also measured
HGHVDPVKTPKI (listed as Homo sapiens) [M9 peptide]	marked inhibition	improvement	remarkable reduction	marked inhibition	reduction	improved	improved	significant inhibition						BLM-induced pulmonary fibrosis (overall) ([1]; d21): mitigated; BLM-induced pulmonary fibrosis (overall) ([1]; d21, listed as M9 12-Mer Peptide): Mitigated; BLM-induced pulmonary fibrosis (overall) ([1]; d21, listed as SEQ ID NO: 4): resolved; lung volume ([1]; peptide 10 mg/kg/d IP, 7 days starting d14 after BLM, quantitative CT, d21): improved
VYCRKKEGLDSDVADSSILTSGFQPVSIKPSKADNPHLLTIQPDLSTTTT (VYCRKKEGLDSDVADSSILTSGFQPVSIKPSKADNPHLLTIQPDLSTTTT; listed as Homo sapiens) [U5A peptide]	inhibition	improvement	reduction	inhibition	reduction	improved	improved	reduction						BLM-induced pulmonary fibrosis (overall) ([1]; d21, listed as U5A 50-Mer Peptide): Mitigated; BLM-induced pulmonary fibrosis (overall) ([1]; d21, listed as U5 peptide): mitigated
DGIWKASFTTFTVTKYWFYR (listed as Homo sapiens) [CSP]									inhibited	prevented	blocked	protected	inhibited	
NYHYLESSMTALYTLGH (listed as Homo sapiens) [PP-2]										prevented		protected		
FTTFTVT (listed as Homo sapiens) [CSP7]									inhibited		blocked		inhibited	tolerability in mice ([3]; prior work (Marudamuthu et al., 2019)): well-tolerated

From patent publication US12173061B2, “Compositions and methods for treatment of chronic lung diseases” (Board of Regents, The University of Texas System, priority 2021, dated 2024)
